Values of other authors as cited in patent US20040143023A1, “Materials and methods for synthesizing stilbenes” (priority 2000, published 2004).

Legend:
[1] = system: P388 murine leukaemia cell line; conditions: cell line not restated for the trans isomer
[2] = in water and saline

SMILES	concentration range in which cell growth is inhibited [1]	toxicity toward tumour vasculature (tumour vasculature)	solubility [2]
COc1ccc(/C=C/c2cc(OC)c(OC)c(OC)c2)cc1O [trans-combretastatin A-4, E-1-(3′-Hydroxy-4′-methoxy)-2-(Trimethoxyphenyl)-2-(3″,4″,5″-trimethoxyphenyl)ethene]	millimblar range	–	–
COc1ccc(/C=C\c2cc(OC)c(OC)c(OC)c2)cc1O [cis-combretastatin A-4, Z-1-(3′-Hydroxy-4′-methoxyphenyl)-2-(3″,4″,5″-trimethoxyphenyl)ethene]	–	potent and selective toxicity	low solubility
